Assay results as given in patent US5843889A, “Glycopeptide antibiotic derivatives” (Eli Lilly and Company, priority 1997, dated 1998).
Converted amounts (≈) assume the structure as drawn.

Key:
Test in all cases: MIC, standard broth micro-dilution assay
Type in all cases: cell-based
[1] = system: Entercoccus faecalis 2041
Description: (§1) The formula I compounds have in vitro and in vivo activity against Gram-positive pathogenic bacteria. The MIC's were determined using a standard broth micro-dilution assay.

[2] = system: Entercoccus faecalis 276
Description: as §1

[3] = system: Entercoccus gallinarum 245
Description: as §1

Structure (SMILES): CNC(CC(C)C)C(=O)NC1C(=O)NC(CC(N)=O)C(=O)NC2C(=O)NC3C(=O)NC(C(=O)NC(C(=O)O)c4cc(O)cc(O)c4-c4cc3ccc4O)C(OC3CC(C)(N)C(O)C(C)O3)c3ccc(c(Cl)c3)Oc3cc2cc(c3OC2OC(CO)C(O)C(O)C2OC2CC(C)(NCc3ccc(Oc4ccc(Cl)c(Cl)c4)cc3)C(O)C(C)O2)Oc2ccc(cc2Cl)C1O (stereo not drawn) [Compound 81, 4-[3,4-dichlorophenoxy]benzyl]
- MIC [1]: ≤ 0.06 µg/mL
- MIC [2]: ≤ 0.06 µg/mL
- MIC [3]: 0.25 µg/mL (≈ 0.136 µM)

Structure (SMILES): CNC(CC(C)C)C(=O)NC1C(=O)NC(CC(N)=O)C(=O)NC2C(=O)NC3C(=O)NC(C(=O)NC(C(=O)O)c4cc(O)cc(O)c4-c4cc3ccc4O)C(OC3CC(C)(N)C(O)C(C)O3)c3ccc(c(Cl)c3)Oc3cc2cc(c3OC2OC(CO)C(O)C(O)C2OC2CC(C)(NCCc3ccc(OCc4ccccc4)cc3)C(O)C(C)O2)Oc2ccc(cc2Cl)C1O (stereo not drawn) [Compound 68, 4-benzyloxyphenethyl]
- MIC [1]: ≤ 0.06 µg/mL
- MIC [2]: ≤ 0.06 µg/mL
- MIC [3]: 4 µg/mL (≈ 2.22 µM)

Structure (SMILES): CNC(CC(C)C)C(=O)NC1C(=O)NC(CC(N)=O)C(=O)NC2C(=O)NC3C(=O)NC(C(=O)NC(C(=O)O)c4cc(O)cc(O)c4-c4cc3ccc4O)C(OC3CC(C)(N)C(O)C(C)O3)c3ccc(c(Cl)c3)Oc3cc2cc(c3OC2OC(CO)C(O)C(O)C2OC2CC(C)(NCc3cccc(Sc4ccc(C(C)(C)C)cc4)c3)C(O)C(C)O2)Oc2ccc(cc2Cl)C1O (stereo not drawn) [Compound 228, 3-[4-t-butyl-phenylthio]benzyl]
- MIC [1]: 0.25 µg/mL (≈ 0.135 µM)
- MIC [2]: 1 µg/mL (≈ 0.541 µM)
- MIC [3]: 4 µg/mL (≈ 2.17 µM)

Structure (SMILES): CNC(CC(C)C)C(=O)NC1C(=O)NC(CC(N)=O)C(=O)NC2C(=O)NC3C(=O)NC(C(=O)NC(C(=O)O)c4cc(O)cc(O)c4-c4cc3ccc4O)C(OC3CC(C)(N)C(O)C(C)O3)c3ccc(c(Cl)c3)Oc3cc2cc(c3OC2OC(CO)C(O)C(O)C2OC2CC(C)(NCc3ccc(Oc4ccccc4[N+](=O)[O-])cc3)C(O)C(C)O2)Oc2ccc(cc2Cl)C1O (stereo not drawn) [Compound 70, 4-[2-nitrophenoxy]benzyl]
- MIC [1]: ≤ 0.06 µg/mL
- MIC [2]: ≤ 0.06 µg/mL
- MIC [3]: 2 µg/mL (≈ 1.1 µM)

Structure (SMILES): CNC(CC(C)C)C(=O)NC1C(=O)NC(CC(N)=O)C(=O)NC2C(=O)NC3C(=O)NC(C(=O)NC(C(=O)O)c4cc(O)cc(O)c4-c4cc3ccc4O)C(OC3CC(C)(N)C(O)C(C)O3)c3ccc(c(Cl)c3)Oc3cc2cc(c3OC2OC(CO)C(O)C(O)C2OC2CC(C)(NCc3ccc(-c4ccc(C)cc4)cc3C)C(O)C(C)O2)Oc2ccc(cc2Cl)C1O (stereo not drawn) [Compound 222, 4-[4-methylphenyl]-2-methylbenzyl]
- MIC [1]: ≤ 0.06 µg/mL
- MIC [2]: ≤ 0.06 µg/mL
- MIC [3]: 1 µg/mL (≈ 0.56 µM)

Structure (SMILES): CNC(CC(C)C)C(=O)NC1C(=O)NC(CC(N)=O)C(=O)NC2C(=O)NC3C(=O)NC(C(=O)NC(C(=O)O)c4cc(O)cc(O)c4-c4cc3ccc4O)C(OC3CC(C)(N)C(O)C(C)O3)c3ccc(c(Cl)c3)Oc3cc2cc(c3OC2OC(CO)C(O)C(O)C2OC2CC(C)(NCc3ccc(-c4ccc(OC)cc4)cc3)C(O)C(C)O2)Oc2ccc(cc2Cl)C1O (stereo not drawn) [Compound 54, 4-[4-methoxyphenyl]benzyl]
- MIC [1]: ≤ 0.06 µg/mL
- MIC [2]: 1 µg/mL (≈ 0.559 µM)
- MIC [3]: 0.5 µg/mL (≈ 0.28 µM)

Structure (SMILES): CNC(CC(C)C)C(=O)NC1C(=O)NC(CC(N)=O)C(=O)NC2C(=O)NC3C(=O)NC(C(=O)NC(C(=O)O)c4cc(O)cc(O)c4-c4cc3ccc4O)C(OC3CC(C)(N)C(O)C(C)O3)c3ccc(c(Cl)c3)Oc3cc2cc(c3OC2OC(CO)C(O)C(O)C2OC2CC(C)(NCc3ccc(-c4ccc([N+](=O)[O-])cc4)c([N+](=O)[O-])c3)C(O)C(C)O2)Oc2ccc(cc2Cl)C1O (stereo not drawn) [Compound 212, 3-nitro-4-[4-nitrophenyl]benzyl]
- MIC [1]: ≤ 0.06 µg/mL
- MIC [2]: ≤ 0.06 µg/mL
- MIC [3]: 1 µg/mL (≈ 0.541 µM)

Structure (SMILES): CNC(CC(C)C)C(=O)NC1C(=O)NC(CC(N)=O)C(=O)NC2C(=O)NC3C(=O)NC(C(=O)NC(C(=O)O)c4cc(O)cc(O)c4-c4cc3ccc4O)C(OC3CC(C)(N)C(O)C(C)O3)c3ccc(c(Cl)c3)Oc3cc2cc(c3OC2OC(CO)C(O)C(O)C2OC2CC(C)(NCc3ccc(-c4ccccc4)s3)C(O)C(C)O2)Oc2ccc(cc2Cl)C1O (stereo not drawn) [Compound 67, 5-phenyl-2-thienylmethyl]
- MIC [1]: ≤ 0.06 µg/mL
- MIC [2]: ≤ 0.06 µg/mL
- MIC [3]: 2 µg/mL (≈ 1.13 µM)

Structure (SMILES): CNC(CC(C)C)C(=O)NC1C(=O)NC(CC(N)=O)C(=O)NC2C(=O)NC3C(=O)NC(C(=O)NC(C(=O)O)c4cc(O)cc(O)c4-c4cc3ccc4O)C(OC3CC(C)(N)C(O)C(C)O3)c3ccc(c(Cl)c3)Oc3cc2cc(c3OC2OC(CO)C(O)C(O)C2OC2CC(C)(NCCCCCCCCCCCCc3ccccc3)C(O)C(C)O2)Oc2ccc(cc2Cl)C1O (stereo not drawn) [Compound 234, 12-phenyldodecyl]
- MIC [1]: 0.5 µg/mL (≈ 0.272 µM)
- MIC [2]: 4 µg/mL (≈ 2.18 µM)
- MIC [3]: 16 µg/mL (≈ 8.71 µM)

Structure (SMILES): CCCCCCCCCCC#CCNC1(C)CC(OC2C(Oc3c4cc5cc3Oc3ccc(cc3Cl)C(OC3CC(C)(N)C(O)C(C)O3)C3NC(=O)C(NC(=O)C5NC(=O)C(CC(N)=O)NC(=O)C(NC(=O)C(CC(C)C)NC)C(O)c5ccc(c(Cl)c5)O4)c4ccc(O)c(c4)-c4c(O)cc(O)cc4C(C(=O)O)NC3=O)OC(CO)C(O)C2O)OC(C)C1O (stereo not drawn) [Compound 191, 2-tridecynyl]
- MIC [1]: 1 µg/mL (≈ 0.565 µM)
- MIC [2]: 4 µg/mL (≈ 2.26 µM)
- MIC [3]: 8 µg/mL (≈ 4.52 µM)

Structure (SMILES): CN[C@@H](CC(C)C)C(=O)N[C@H]1C(=O)N[C@H](CC(N)=O)C(=O)N[C@H]2C(=O)N[C@H]3C(=O)N[C@@H](C(=O)NC(C(=O)O)c4cc(O)cc(O)c4-c4cc3ccc4O)[C@@H](O[C@H]3C[C@](C)(N)[C@H](O)[C@@H](C)O3)c3ccc(cc3)Oc3cc2cc(c3O[C@H]2O[C@@H](CO)[C@@H](O)[C@H](O)[C@@H]2O[C@H]2C[C@](C)(N)[C@H](O)[C@@H](C)O2)Oc2ccc(cc2)[C@@H]1O (stereo partly drawn) [Compound A82846C, A82846C, reference compound]
- MIC [1]: 0.5 µg/mL (≈ 0.328 µM)
- MIC [2]: 0.5 µg/mL (≈ 0.328 µM)
- MIC [3]: 0.5 µg/mL (≈ 0.328 µM)

Structure (SMILES): CNC(CC(C)C)C(=O)NC1C(=O)NC(CC(N)=O)C(=O)NC2C(=O)NC3C(=O)NC(C(=O)NC(C(=O)O)c4cc(O)cc(O)c4-c4cc3ccc4O)C(OC3CC(C)(N)C(O)C(C)O3)c3ccc(c(Cl)c3)Oc3cc2cc(c3OC2OC(CO)C(O)C(O)C2OC2CC(C)(NCc3ccc(C)c(C)c3)C(O)C(C)O2)Oc2ccc(cc2Cl)C1O (stereo not drawn) [Compound 76, 3,4-dimethylbenzyl]
- MIC [1]: ≤ 0.06 µg/mL
- MIC [2]: ≤ 0.06 µg/mL
- MIC [3]: 4 µg/mL (≈ 2.34 µM)

Structure (SMILES): CCCc1ccc(-c2ccc(CNC3(C)CC(OC4C(Oc5c6cc7cc5Oc5ccc(cc5Cl)C(OC5CC(C)(N)C(O)C(C)O5)C5NC(=O)C(NC(=O)C7NC(=O)C(CC(N)=O)NC(=O)C(NC(=O)C(CC(C)C)NC)C(O)c7ccc(c(Cl)c7)O6)c6ccc(O)c(c6)-c6c(O)cc(O)cc6C(C(=O)O)NC5=O)OC(CO)C(O)C4O)OC(C)C3O)cc2)cc1 (stereo not drawn) [Compound 107, 4-[4-propylphenyl]benzyl]
- MIC [1]: 0.5 µg/mL (≈ 0.278 µM)
- MIC [2]: 1 µg/mL (≈ 0.555 µM)
- MIC [3]: 2 µg/mL (≈ 1.11 µM)

Structure (SMILES): CNC(CC(C)C)C(=O)NC1C(=O)NC(CC(N)=O)C(=O)NC2C(=O)NC3C(=O)NC(C(=O)NC(C(=O)O)c4cc(O)cc(O)c4-c4cc3ccc4O)C(OC3CC(C)(N)C(O)C(C)O3)c3ccc(c(Cl)c3)Oc3cc2cc(c3OC2OC(CO)C(O)C(O)C2OC2CC(C)(NCc3ccc(OCCCCCCc4ccccc4)cc3)C(O)C(C)O2)Oc2ccc(cc2Cl)C1O (stereo not drawn) [Compound 219, 4-[6-phenylhexyloxy]benzyl]
- MIC [1]: 2 µg/mL (≈ 1.08 µM)
- MIC [2]: 2 µg/mL (≈ 1.08 µM)
- MIC [3]: 2 µg/mL (≈ 1.08 µM)

Structure (SMILES): CNC(CC(C)C)C(=O)NC1C(=O)NC(CC(N)=O)C(=O)NC2C(=O)NC3C(=O)NC(C(=O)NC(C(=O)O)c4cc(O)cc(O)c4-c4cc3ccc4O)C(OC3CC(C)(N)C(O)C(C)O3)c3ccc(c(Cl)c3)Oc3cc2cc(c3OC2OC(CO)C(O)C(O)C2OC2CC(C)(NCc3ccc(N4CCN(C)CC4)cc3)C(O)C(C)O2)Oc2ccc(cc2Cl)C1O (stereo not drawn) [Compound 146, 4-[4-methylpiperazino]benzyl]
- MIC [1]: 0.5 µg/mL (≈ 0.281 µM)
- MIC [2]: 1 µg/mL (≈ 0.562 µM)
- MIC [3]: 0.5 µg/mL (≈ 0.281 µM)

Structure (SMILES): CNC(CC(C)C)C(=O)NC1C(=O)NC(CC(N)=O)C(=O)NC2C(=O)NC3C(=O)NC(C(=O)NC(C(=O)O)c4cc(O)cc(O)c4-c4cc3ccc4O)C(OC3CC(C)(N)C(O)C(C)O3)c3ccc(c(Cl)c3)Oc3cc2cc(c3OC2OC(CO)C(O)C(O)C2OC2CC(C)(NCCc3ccc(Cc4ccccc4)cc3)C(O)C(C)O2)Oc2ccc(cc2Cl)C1O (stereo not drawn) [Compound 35, 4 -benzylphenethyl]
- MIC [1]: ≤ 0.06 µg/mL
- MIC [2]: ≤ 0.06 µg/mL
- MIC [3]: ≤ 0.06 µg/mL

Structure (SMILES): CNC(CC(C)C)C(=O)NC1C(=O)NC(CC(N)=O)C(=O)NC2C(=O)NC3C(=O)NC(C(=O)NC(C(=O)O)c4cc(O)cc(O)c4-c4cc3ccc4O)C(OC3CC(C)(N)C(O)C(C)O3)c3ccc(c(Cl)c3)Oc3cc2cc(c3OC2OC(CO)C(O)C(O)C2OC2CC(C)(NCCCCCCCCOc3ccccc3)C(O)C(C)O2)Oc2ccc(cc2Cl)C1O (stereo not drawn) [Compound 195, 8-phenoxyoctyl]
- MIC [1]: ≤ 0.06 µg/mL
- MIC [2]: 0.25 µg/mL (≈ 0.139 µM)
- MIC [3]: 4 µg/mL (≈ 2.23 µM)

Structure (SMILES): CNC(CC(C)C)C(=O)NC1C(=O)NC(CC(N)=O)C(=O)NC2C(=O)NC3C(=O)NC(C(=O)NC(C(=O)O)c4cc(O)cc(O)c4-c4cc3ccc4O)C(OC3CC(C)(N)C(O)C(C)O3)c3ccc(c(Cl)c3)Oc3cc2cc(c3OC2OC(CO)C(O)C(O)C2OC2CC(C)(NCc3ccc(OC(=O)C4CCCCC4)cc3)C(O)C(C)O2)Oc2ccc(cc2Cl)C1O (stereo not drawn) [Compound 157, 4-cyclohexanoyloxybenzyl]
- MIC [1]: ≤ 0.06 µg/mL
- MIC [2]: ≤ 0.06 µg/mL
- MIC [3]: 1 µg/mL (≈ 0.553 µM)

Structure (SMILES): CNC(CC(C)C)C(=O)NC1C(=O)NC(CC(N)=O)C(=O)NC2C(=O)NC3C(=O)NC(C(=O)NC(C(=O)O)c4cc(O)cc(O)c4-c4cc3ccc4O)C(OC3CC(C)(N)C(O)C(C)O3)c3ccc(c(Cl)c3)Oc3cc2cc(c3OC2OC(CO)C(O)C(O)C2OC2CC(C)(NCc3cccc(OC(=O)c4ccccc4)c3)C(O)C(C)O2)Oc2ccc(cc2Cl)C1O (stereo not drawn) [Compound 162, 3-benzoyloxybenzyl]
- MIC [1]: ≤ 0.06 µg/mL
- MIC [2]: ≤ 0.06 µg/mL
- MIC [3]: 2 µg/mL (≈ 1.11 µM)
